Laboratory results published in US9975893B2, “Pyrazolo[3,4-c]pyridine derivatives” (CSPC ZHONGQI PHARMACEUTICAL TECHNOLOGY (SHIJIAZHUANG) CO., …, priority 2014, dated 2018).

These molecules were tested against T1, Factor Xa (Homo sapiens, UniProt P00742) (assay: Anti-Factor Xa activity assay (chromogenic substrate CS-11(22))). Details: ratio of compound IC50 to apixaban IC50; Factor Xa 0.1 U/ml, absorbance at 405 nm, 37° C.
T1 construct: purchased MERK
Type: biochemical
Procedure: I. Anti-Factor Xa Activity Assay
Substrate: CS-1122 (Hyphen)
Buffer: 50 mM TrisHCl, 150 mM NaCl, PH8.3
100 μL of buffer, 50 μL of different concentrations of compounds (diluted with buffer) and 50 μl of 0.1 U/ml Factor Xa enzyme (diluted with buffer) were added to a 96-well plate. After 15 min of exposure, 50 μL of chromogenic substrate 2.5 mg/ml CS-11 (22) was added. The substrate hydrolysis was monitored by measuring absorbance at 405 nm at 37° C. for up to 30 min (interval: 30 seconds) using a microplate spectrophotometer. IC50 was calculated by bliss.

T1 sequence (P00742 235-488 limits assumed): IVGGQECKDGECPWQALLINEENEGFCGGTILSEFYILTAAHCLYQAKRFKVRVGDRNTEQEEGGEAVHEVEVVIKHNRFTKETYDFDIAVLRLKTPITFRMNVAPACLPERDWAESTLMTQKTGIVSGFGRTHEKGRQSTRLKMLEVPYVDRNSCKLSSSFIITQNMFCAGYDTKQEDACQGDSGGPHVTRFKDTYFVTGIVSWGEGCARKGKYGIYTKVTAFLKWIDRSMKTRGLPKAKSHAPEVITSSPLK
T1 sequence (P00742 41-179 partner limits assumed): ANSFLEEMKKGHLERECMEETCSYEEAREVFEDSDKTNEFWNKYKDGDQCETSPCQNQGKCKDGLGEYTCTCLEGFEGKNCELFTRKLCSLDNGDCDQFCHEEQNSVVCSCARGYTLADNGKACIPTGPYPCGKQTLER

IC50(Compound)/IC50(apixaban) | Compound
<1 | COc1ccc(-n2nc(C(N)=O)c3c2C(=O)N(c2ccc(N4CCSCC4=O)cc2)CC3)cc1 [A 3, 1-(4-methoxyphenyl)-6-(4-(3-oxothiomorpholino)phenyl)-7-oxo-4,5,6,7-tetrahydro-1H-pyrazolo[3,4-c]pyridine-3-carboxamide]
<1 | COc1ccc(-n2nc(C(N)=O)c3c2C(=O)N(c2ccc(N4CCCCC4=O)c(C)c2)CC3)cc1 [A 16, 1-(4-methoxyphenyl)-6-(3-methyl-4-(2-oxopiperidin-1-yl)phenyl)-7-oxo-4,5,6,7-tetrahydro-1H-pyrazolo[3,4-c]pyridine-3-carboxamide]
<1 | COc1ccc(-n2nc(C(N)=O)c3c2C(=O)N(c2ccc(N4CCOCC4=O)c(C)c2)CC3)cc1 [A 17, 1-(4-methoxyphenyl)-6-(3-methyl-4-(3-oxomorpholino)phenyl)-7-oxo-4,5,6,7-tetrahydro-1H-pyrazolo[3,4-c]pyridine-3-carboxamide]
<1 | COc1ccc(-n2nc(C(N)=O)c3c2C(=O)N(c2ccc(-n4ccccc4=O)c(C)c2)CC3)cc1 [A 19, 1-(4-methoxyphenyl)-6-(3-methyl-4-(2-oxopyridin-1(2H)-yl)phenyl)-7-oxo-4,5,6,7-tetrahydro-1H-pyrazolo[3,4-c]pyridine-3-carboxamide]
<2 | CCOc1ccc(-n2nc(C(N)=O)c3c2C(=O)N(c2ccc(-n4cccc(C)c4=O)cc2)CC3)cc1Cl [A 30, 1-(3-chloro-4-ethoxyphenyl)-6-(4-(3-methyl-2-oxopyridin-1(2H)-yl)phenyl)-7-oxo-4,5,6,7-tetrahydro-1H-pyrazolo[3,4-c]pyridine-3-carboxamide]
<2 | CCOc1ccc(-n2nc(C(N)=O)c3c2C(=O)N(c2ccc(N4CCCC4=O)c(C)c2)CC3)cc1 [A 35, 1-(4-ethoxyphenyl)-6-(3-methyl-4-(2-oxopyrrolidin-1-yl)phenyl)-7-oxo-4,5,6,7-tetrahydro-1H-pyrazolo[3,4-c]pyridine-3-carboxamide]
<1 | COc1ccc(-n2nc(C(N)=O)c3c2C(=O)N(c2ccc(N4CCCCC4=O)c(C)c2)CC3)cc1F [A 47, 1-(3-fluoro-4-methoxyphenyl)-6-(3-methyl-4-(2-oxopiperidin-1-yl)phenyl)-7-oxo-4,5,6,7-tetrahydro-1H-pyrazolo[3,4-c]pyridine-3-carboxamide]
<1 | COc1ccc(-n2nc(C(N)=O)c3c2C(=O)N(c2ccc(N4CCOCC4=O)c(C)c2)CC3)cc1F [A 48, 1-(3-fluoro-4-methoxyphenyl)-6-(3-methyl-4-(3-oxomorpholino)phenyl)-7-oxo-4,5,6,7-tetrahydro-1H-pyrazolo[3,4-c]pyridine-3-carboxamide]
<1 | COc1ccc(-n2nc(C(N)=O)c3c2C(=O)N(c2ccc(-n4ccccc4=O)c(C)c2)CC3)cc1F [A 50, 1-(3-fluoro-4-methoxyphenyl)-6-(3-methyl-4-(2-oxopyridin-1(2H)-yl)phenyl)-7-oxo-4,5,6,7-tetrahydro-1H-pyrazolo[3,4-c]pyridine-3-carboxamide]
<1 | COc1ccc(-n2nc(C(N)=O)c3c2C(=O)N(c2ccc(-n4cccc(C)c4=O)c(C)c2)CC3)cc1F [A 51, 1-(3-fluoro-4-methoxyphenyl)-6-(3-methyl-4-(3-methyl-2-oxopyridin-1(2H)-yl)phenyl)-7-oxo-4,5,6,7-tetrahydro-1H-pyrazolo[3,4-c]pyridine-3-carboxamide]

What follows are molecules tested on Male SD rats (assay: Rat tail bleeding model). Details: rat tail transected 0.5 to 4 hours after administration; prolongation = ratio of treated vs. mean vehicle value; relative to apixaban.
Type: in vivo
Procedure: II Rat Tail Bleeding Model
Male SD rats were allocated randomly and administrated. After the administration, the rats were anesthetized by intraperitoneal injection of 10% chloral hydrate. At the time point of 0.5 to 4 hours (Tmax in PK) after the administration, the tails of anesthetized rats were transected 3 mm from the tip and vertically immersed in saline at 37° C. The time point when the continuous blood flow ceased for >30 s was measured. The prolongation of bleeding time was expressed as a ratio of treated vs. the mean vehicle value. Effects of compounds were determined as described below.

The Prolongation of bleeding time (compound)/The Prolongation of bleeding time(apixaban) | Compound
<1 | CCOc1ccc(-n2nc(C(N)=O)c3c2C(=O)N(c2ccc(-n4cccc(C)c4=O)cc2)CC3)cc1Cl [A 30, 1-(3-chloro-4-ethoxyphenyl)-6-(4-(3-methyl-2-oxopyridin-1(2H)-yl)phenyl)-7-oxo-4,5,6,7-tetrahydro-1H-pyrazolo[3,4-c]pyridine-3-carboxamide]
<1 | CCOc1ccc(-n2nc(C(N)=O)c3c2C(=O)N(c2ccc(N4CCCC4=O)c(C)c2)CC3)cc1 [A 35, 1-(4-ethoxyphenyl)-6-(3-methyl-4-(2-oxopyrrolidin-1-yl)phenyl)-7-oxo-4,5,6,7-tetrahydro-1H-pyrazolo[3,4-c]pyridine-3-carboxamide]
